This is an account of results in patent US9930893B2, “Inhibitors of DXP synthase and methods of use thereof” (The Johns Hopkins University, priority 2014, dated 2018).

For experiment [1], the target named is T1, DXP synthase (Escherichia coli, UniProt P77488).
T1 construct: made in house
T1 sequence (P77488 1-620): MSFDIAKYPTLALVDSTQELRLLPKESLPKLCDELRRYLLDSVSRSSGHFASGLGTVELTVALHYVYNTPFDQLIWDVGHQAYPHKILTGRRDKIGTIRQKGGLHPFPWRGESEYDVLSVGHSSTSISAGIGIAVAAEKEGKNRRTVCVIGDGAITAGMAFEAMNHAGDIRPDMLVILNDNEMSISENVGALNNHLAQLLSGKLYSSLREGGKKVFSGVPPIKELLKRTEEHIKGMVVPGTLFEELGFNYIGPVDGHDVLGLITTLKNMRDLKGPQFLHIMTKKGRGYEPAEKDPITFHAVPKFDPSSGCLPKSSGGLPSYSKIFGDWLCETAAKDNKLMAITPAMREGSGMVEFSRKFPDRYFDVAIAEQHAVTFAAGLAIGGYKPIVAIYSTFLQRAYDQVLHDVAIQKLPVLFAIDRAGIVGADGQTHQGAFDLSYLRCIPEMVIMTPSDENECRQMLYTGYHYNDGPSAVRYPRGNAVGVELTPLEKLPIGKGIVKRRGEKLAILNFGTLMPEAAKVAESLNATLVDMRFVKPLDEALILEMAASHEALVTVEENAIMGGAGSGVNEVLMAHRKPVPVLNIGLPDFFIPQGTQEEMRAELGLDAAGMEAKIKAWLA
Nature of the experiment: Aromatic aldehydes as DXP synthase acceptor substrates. It is filed as biochemical. The text has this:
Some ThDP-dependent enzymes are known to catalyze C—C bond formation using aromatic substrates with varying turnover efficiencies; ^[20] [21] […] As a starting point, we tested several aromatic aldehydes as acceptor substrates.

In experiment [2] the target is T2, E. coli DXP synthase (DXPS) (Escherichia coli, UniProt P77488).
T2 construct: made in house
T2 sequence (P77488 1-620): T1 sequence (P77488 1-620)
It is filed as biochemical. Particulars: 10-20 mM pyruvate, pH 8.0, 10% DMSO, 37° C., average ± SEM. On the procedure:
Reaction mixtures containing 100 mM HEPES, pH 8.0, 2 mM MgCl2, 5 mM NaCl, 1 mM ThDP, 1 mg/mL BSA, 10-20 mM pyruvate, 10% DMSO, 0.5 mM 5 mM nitroso substrate were pre-incubated at 37° C. for 5 min. […] Aliquots of enzymatic mixture were removed at various time intervals and quenched into an equal volume of cold methanol. Quenched mixtures were incubated on ice for 20 minutes. Precipitated proteins were removed by centrifugation, and the supernatant was analyzed by HPLC with UV detection using the following conditions: Flow rate=3 mL/min; Solvent A: 100 mM NH4OAc, pH 4.6; Solvent B: acetonitrile; Method: 0-100% B over 10 min. New products formed were extracted from the supernatant using ethyl acetate (3×). […] Products were subsequently characterized by mass spectrometry.
Reaction mixtures containing 100 mM HEPES, pH 8.0, 2 mM MgCl2, 5 mM NaCl, 1 mM ThDP, 1 mg/mL BSA, 10-20 mM pyruvate, 10% DMSO v/v, and 10-300 μM nitroso substrate were pre-incubated at 37° C. for 5 min. […] Substrate concentration as a function of time was determined from absorbance values using Beer's Law. Initial reaction rates were determined from the linear range of the reaction progress curve, usually within 1-3 min. Data analysis to determine kcat and Km for each alternative substrate was carried out using GraFit version 7 from Erithacus Software.

The target of experiment [3] is T1, DXP synthase. The experiment can be described thus: Inhibition of DXP formation by nitroso substrates (HPLC-based assay). It is filed as biochemical, E. coli. Particulars: 30 μM D-GAP, 80 μM pyruvate, 37° C.; average ± SEM. The procedure:
Enzyme reactions were initiated by addition of 0.1 μM DXP synthase. Aliquots (150 μL) of the enzymatic mixture were removed between 0.5 and 3 minutes and quenched into ice-cold methanol (150 μL). Precipitated protein was removed by centrifugation, and the supernatant was diluted in an equal volume of water. The nitroso substrate was removed by extraction into acetonitrile (3×), using a previously described freeze-extraction technique. ^[32] […] The derivatization mixtures were analyzed by HPLC as previously described. ^[19] To determine initial reaction rates in the presence of varying inhibitor concentration, the D,L-GAP and DXP hydrazone HPLC peak areas were measured, and the product concentration was determined as a percent of total peak area and plotted against reaction time. Initial rates GraFit version 7 from Erithacus Software was utilized to generate IC50 curves.

The test system of another experiment is porcine PDH E1 subunit. The format is biochemical. The procedure: Reaction mixtures containing 100 mM HEPES, pH 8.0, 2 mM MgCl2, 5 mM NaCl, 1 mM ThDP, 1 mg/mL BSA, 10-20 mM pyruvate, 10% DMSO v/v, and 10-300 μM nitroso substrate were pre-incubated at 37° C. for 5 min. Enzymatic reactions were initiated by addition of 0.5-2 μM DXP synthase (or 0.1 units/ml PDH) and monitored spectrophotometrically by measuring the rate of disappearance of the nitroso substrate at its corresponding λmax. Substrate concentration as a function of time was determined from absorbance values using Beer's Law. Initial reaction rates were determined from the linear range of the reaction progress curve, usually within 1-3 min. Data analysis to determine kcat and Km for each alternative substrate was carried out using GraFit version 7 from Erithacus Software.

Where [4] appears, read: aromatic aldehyde acceptor substrate.

Sequence of porcine PDH E1 subunit (P29804 30-389): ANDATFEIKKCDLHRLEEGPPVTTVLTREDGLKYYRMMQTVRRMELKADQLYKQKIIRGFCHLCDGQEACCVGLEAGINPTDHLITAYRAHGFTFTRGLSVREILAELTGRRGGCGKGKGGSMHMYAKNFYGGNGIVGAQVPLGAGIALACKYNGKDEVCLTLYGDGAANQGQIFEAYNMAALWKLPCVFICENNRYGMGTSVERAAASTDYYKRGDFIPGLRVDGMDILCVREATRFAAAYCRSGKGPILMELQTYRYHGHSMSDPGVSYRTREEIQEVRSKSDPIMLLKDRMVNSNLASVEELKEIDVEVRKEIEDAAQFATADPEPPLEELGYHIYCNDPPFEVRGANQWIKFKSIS

For `O=Cc1c(O)cc([N+](=O)[O-])cc1[N+](=O)[O-]` [2-Hydroxy-4,6-dinitrobenzaldehyde], on DXP synthase [1], the “Km higher than the natural substrate, D-GAP” value is about 18 fold. Also, at DXP synthase [1] (setting [4]), the Michaelis constant (Km) was found to be 512 µM and the catalytic constant (kcat) came to 0.00583 ± 0.00083 s⁻¹.
Take benzyl acetylphosphonate [Compound 1]: the kcat in experiment [2] (acceptor substrate turnover) came out at 2.92 ± 0.317 s⁻¹. For the same compound, the Michaelis constant (Km) in experiment [2] (acceptor substrate) came to 133 ± 18 µM; in the experiment with porcine PDH E1 subunit (10-20 mM pyruvate, pH 8.0, 37° C., average ± SEM), 350 ± 30 µM. At DXP synthase [3], this compound had an IC50 of 208 ± 20 µM. Besides, in the experiment with porcine PDH E1 subunit (ratio porcine PDH E1 vs E. coli DXPS), the “Km^PDH/Km^DXPS” value was 2.7.
